# Tests used:
# Experiment in all cases: relative viability (nuclei count vs DMSO), 5 days (fraction); higher = more cells survive
# BAM7 + Pemetrexed = compound: CCOC1=CC=CC=C1N=NC2=C(NN(C2=O)C3=NC(=CS3)C4=CC=CC=C4)C [BAM7] + Nc1nc2[nH]cc(CCc3ccc(C(=O)N[C@@H](CCC(=O)O)C(=O)O)cc3)c2c(=O)[nH]1 [Pemetrexed] (partner 0.2 µM)
# Procedure, shortened: (§1)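 Medians of duplicate plates are given as relative viability. That measure is the nuclei count in treated wells divided by the count in vehicle wells. Counts were taken on 4× images of lung cancer cell lines in 1536-well plates, 5 days after pin-tool dosing the day after seeding with one drug alone or a fixed anchor-drug dose plus five library-drug doses (not always all listed) in √10 steps.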
# BAM7 + Bortezomib = compound: CCOC1=CC=CC=C1N=NC2=C(NN(C2=O)C3=NC(=CS3)C4=CC=CC=C4)C [BAM7] + CC(C)C[C@H](NC(=O)[C@H](Cc1ccccc1)NC(=O)c1cnccn1)B(O)O [Bortezomib] (partner 0.002 µM)
# Procedure, shortened: as §1
# [1] = compound: CCn1c(-c2nonc2N)nc2c(C#CC(C)(C)O)ncc(OC[C@H]3CCCNC3)c21 + N=C(N)NC(=N)NCCc1ccccc1 [Phenformin] (partner 250 µM)
# Procedure, shortened: as §1
# BAM7 = compound: CCOC1=CC=CC=C1N=NC2=C(NN(C2=O)C3=NC(=CS3)C4=CC=CC=C4)C [BAM7]
# Procedure, shortened: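 Vehicle-anchored 1536-well plates of lung cancer cell lines, held overnight at 37 °C, were pinned with five library-drug doses (not always all listed) spaced by √10. No medium change followed over the next 5 days, after which the cells were fixed, permeabilised and Hoechst-stained together and imaged at 4×. Nuclei were counted with MetaXpress, and viability is treated-well nuclei over vehicle-well nuclei, taken as a median across plates. Plates passed with control CV below 25% and at least one doubling.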
Cell Line,relative viability (BAM7 + Pemetrexed; first compound 0.5 µM),relative viability (BAM7 + Pemetrexed; first compound 5 µM),relative viability (BAM7 + Pemetrexed; first compound 15.81 µM),relative viability (BAM7 + Pemetrexed; first compound 50 µM),relative viability (BAM7 + Bortezomib; first compound 0.5 µM),relative viability (BAM7 + Bortezomib; first compound 5 µM),relative viability (BAM7 + Bortezomib; first compound 15.81 µM),relative viability (BAM7 + Bortezomib; first compound 50 µM),relative viability ([1]; first compound 0.01 µM),relative viability ([1]; first compound 0.03162 µM),relative viability ([1]; first compound 0.1 µM),relative viability ([1]; first compound 0.3162 µM),relative viability ([1]; first compound 1 µM),relative viability (BAM7; 0.5 µM),relative viability (BAM7; 5 µM),relative viability (BAM7; 15.81 µM),relative viability (BAM7; 50 µM)
NCI-H1792,0.943,1.13,0.707,0.816,1.09,1.06,0.97,0.957,0.203,0.291,0.258,0.262,0.299,1.02,1.06,1.07,0.873
NCI-H1915,0.425,0.505,0.524,0.46,0.988,1.01,1.09,1.03,0.384,0.385,0.36,0.357,0.36,1.01,1.13,0.989,0.991
NCI-H1975,0.292,0.276,0.269,0.288,0.356,0.379,,0.386,0.4,0.394,0.393,0.389,0.352,0.823,0.898,0.775,0.903
NCI-H1993,0.62,0.529,0.5,0.581,0.843,0.836,0.472,1.09,0.485,0.47,0.5,0.478,0.495,0.776,0.764,0.744,0.737
NCI-H2009,1.03,1.06,1.03,1.01,0.976,1.29,0.926,0.971,0.473,0.491,0.519,0.458,0.452,1.04,1.12,0.994,1.04
NCI-H2023,0.229,0.248,0.174,0.286,0.988,0.905,0.92,1.08,0.4,0.409,0.412,0.3,0.34,0.917,0.823,0.793,1.02
NCI-H2085,1.02,0.675,0.844,0.992,1.07,1.12,0.979,1.16,0.627,0.694,0.674,0.706,0.719,0.995,0.976,0.933,1.01
NCI-H2087,0.671,0.627,0.653,0.646,0.892,0.85,0.843,0.767,0.454,0.572,0.478,0.43,0.465,1.18,1.14,1.11,1.13
NCI-H2126,0.746,0.672,0.574,0.641,1.07,1,1.08,1.08,0.565,0.498,0.513,0.496,0.478,0.944,0.879,0.867,0.898
